Measured values taken from patent US11207289B2, “Use of benzofuran lignans to induce IL-25 expression and suppress mammary tumor metastasis” (ACADEMIA SINICA, priority 2016, dated 2021).

Test system: myeloid derived suppressor cells (MDSCs)
Experiment: Flow cytometry of MDSCs in lung tissue, 4T1 tumor resection model
Format: in vivo, mice
Conditions: 10 μg/kg, 3 weeks post tumor resection
Procedure: BALB/c mice were subcutaneously injected with 4T1-Luc2 cells (5×10^5/100 μl PBS/mouse) into the fourth mammary fat pad under isoflurane anesthesia. Tumor growth was monitored by measuring the tumor volume according to the formula: volume=length×(width)^2/2. After tumors were established (180-200 mm^3) on day 14, test mice were divided into different groups (8 mice/group) and subjected to different treatments. At 15 days post tumor cell implantation, primary 4T1 tumors in situ were surgically removed by a tumor resection process. For drug treatment, mice were administered with different agents, including vehicle-control (PBS), mouse IL-25 protein (10 μg/kg, ProSpec, Vineland, N.J.), Q2-3 (2, 20 or 100 μg/kg) or docetaxel (2 mg/kg; Sigma-Aldrich), by intravenous injection for 3 weeks (3 injections/week) post tumor resection. […] Bioluminescence signals from the 4T1-luc2 tumor cells in test mice were analyzed using a non-invasive IVIS imaging system (Calipers, Hopkinton, Mass.) after intraperitoneal injection of 150 mg/kg D-luciferin (NanoLight technology, Pinetop, Ariz.). […]
Suppressive effects of Q2-3 on in vivo expansion of MDSC populations were also evaluated for both the monocytic (CD11b^+Ly6C^+) and granulocytic (CD11b^+Ly6G^+) subsets of MDSCs. The populations of these two MDSC cell types in lung tissues of test mice were analyzed and compared at 3 weeks post tumor resection.

COC(=O)/C=C/c1cc(O)c2c(c1)C(C(=O)OC)C(c1ccc(O)c(O)c1)O2 (centres unmarked) [Q2-3, methyl(E)-3-[2-(3,4-dihydroxyphenyl)-7-hydroxy-3-methoxycarbonyl-2,3-dihydro-1-benzofuran-5yl]-prop-2-enoate]
monocytic CD11b+Ly6C+ MDSC population in lung tissue (PBS control 0.9%): 0.4% | granulocytic CD11b+Ly6G+ MDSC population in lung tissue (PBS control 42.9%): 12.5%
